Data reported in article PMC4603696, “Discovery and characterization of novel small-molecule inhibitors targeting nicotinamide phosphoribosyltransferase” (Scientific Reports, 2015).
Several values for one entry are separate records, joined by “and”; a condition that tells them apart may be missing. Equal values may be shown once. Read-outs that look alike come from different tables or passages of the source.

How the values were obtained:
HepG2 cells [1] = test: Cell counting kit-8 (CCK-8) cell viability assay in HepG2; type: cell-based, human; conditions: HepG2, 48 hours treatment, read-out: CCK-8 assay in HepG2: IC50
Method: (§1) Cellc ount ing k it-8 (CCK-8) assa y
Cell vi ability was de termine d by ou r previ ous method9 usi ng the Cell Counting Kit-8 (CCK -8, Dojindo, Ja pa n). In hu man he pa tocellu lar carcinom a cell line HepG 2, cells were seede d in 96-well plate and starve d for ove r 12 h with se rum-free DMEM at 60~ 70% conf lue nc y, the n trea ted wit h com pounds or ve hicle for 24 h to 72 h accor ding to expe riment requi rement s. […]
(§2) 10 μl CCK-8 sol ution was adde d to the cul ture medium and inc ub ated at 37 °C for 1 h. Th e absor banc e at 450 nm (A450) was de tected by a pl ate reade r. Each e xperi ment w as carr ied out i n t riplic ate i n thr ee r eplic ate w ells.

HepG2 cells [2] = test: Sulforhodamine B protein staining (SRB) assay in HepG2; type: cell-based, human; conditions: Homo sapiens
Method: (§3) Sulfor hod am ine B p rotei n st ai ning (SRB) assay
(§4) Cell pr oliferat ion was eva lua ted by sul for hod amine B pr ot ein st aini ng (SRB) assa y10-12.
(§5) Briefly, cel ls were se ede d int o 96-well pl ates, cul tur ed overni ght , and trea ted with correspond ing com poun ds for 72 h. Cells were the n fixe d with 10% trichl or oa cetic aci d and st ained with sul for hoda mine B (Sigm a). Sul for hoda mine B in the cells was di sso lved in 10 mmol/L Tris-HCl and was measured at 515 nm usi ng a multiw ell spect ropho tometer (VERSA max, Mol ecul ar Devi ces, Sunnyva le, CA). The inhi bi tion rat e on cell pr olif eratio n was cal culated for each well as (A515contr ol cells-A 515tr eated cells)/A515contr ol cells×100 % (A515:
(§6) OD va lue at 515 nm ). The averag e IC50 va lue s were de termine d by Logit method from at leas t t hr eei nde pe nde nt test s.

A549 cells = test: SRB assay in A549; type: cell-based, human; conditions: Homo sapiens; A549, SRB, 10-fold concentration gradient; read-out: anti-proliferation IC50, initial screen
Method: as §3, §4, §5, §6

HCT116 cells = test: SRB assay in HCT116; type: cell-based; conditions: Homo sapiens, HCT-116; HCT116, SRB, 10-fold concentration gradient; read-out: anti-proliferation IC50, initial screen
Method: as §3, §4, §5, §6

Huh7-C cells = test: CCK-8 assay in stem-like human hepatoma cell line Huh7-C; type: cell-based; conditions: Huh7-C, treated 60 h, read-out: CCK-8 assay in Huh7-C: IC50
Method: as §1
Cell vi ability was de termine d by ou r previ ous method9 usi ng the Cell Counting Kit-8 (CCK -8, […]
as §2

NAMPT H191A mutant = molecular target: T1, NAMPT H191A mutant (Homo sapiens, UniProt P43490, H191A); test: NAMPT activity assay, H191A mutant; type: biochemical; conditions: for IC50: same condition as wild-type, read-out: IC50 against H191A mutant
T1 construct: His-tag; made in house; host or cells: E. coli BL21-CodonPlus (DE3)-RIL
T1 sequence (P43490 whole entry H191A): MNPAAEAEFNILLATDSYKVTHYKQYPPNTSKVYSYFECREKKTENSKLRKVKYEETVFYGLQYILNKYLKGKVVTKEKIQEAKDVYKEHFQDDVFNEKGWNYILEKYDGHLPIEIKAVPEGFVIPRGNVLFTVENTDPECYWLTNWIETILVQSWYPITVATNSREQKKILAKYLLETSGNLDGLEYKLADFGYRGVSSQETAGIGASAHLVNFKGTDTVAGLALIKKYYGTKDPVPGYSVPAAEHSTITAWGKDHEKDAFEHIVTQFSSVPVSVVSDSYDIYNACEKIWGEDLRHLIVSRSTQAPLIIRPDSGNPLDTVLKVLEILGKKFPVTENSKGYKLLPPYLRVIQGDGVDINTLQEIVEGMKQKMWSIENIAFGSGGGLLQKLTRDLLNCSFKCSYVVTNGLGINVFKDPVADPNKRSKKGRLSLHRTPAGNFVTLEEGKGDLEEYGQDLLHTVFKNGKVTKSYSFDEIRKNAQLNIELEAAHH

NAMPT A244S mutant = molecular target: T2, NAMPT A244S mutant (Homo sapiens, UniProt P43490, A244S); test: NAMPT activity assay, A244S mutant; type: biochemical; conditions: for IC50: same condition as wild-type, read-out: IC50 against A244S mutant
T2 construct: His-tag; made in house; host or cells: E. coli BL21-CodonPlus (DE3)-RIL
T2 sequence (P43490 whole entry A244S): as the sequence (P43490 whole entry H191A) above, with A191H, A244S counted along it

NAMPT I309Y mutant = molecular target: T3, NAMPT I309Y mutant (Homo sapiens, UniProt P43490, I309Y); test: NAMPT activity assay, I309Y mutant; type: biochemical; conditions: for IC50: same condition as wild-type, read-out: IC50 against I309Y mutant
T3 construct: His-tag; made in house; host or cells: E. coli BL21-CodonPlus (DE3)-RIL
T3 sequence (P43490 whole entry I309Y): as the sequence (P43490 whole entry H191A) above, with A191H, I309Y counted along it

NAMPT [3] = molecular target: T4, NAMPT (Homo sapiens, UniProt P43490); test: Cellular thermal shift assay (CETSA / […]) in HepG2 cell lysate; type: binding; design: endogenous in cells; host or cells: HepG2; conditions: for CETSA melting curve shift of NAMPT in cell lysate: HepG2 cell lysate, 100 μM
T4 sequence (P43490 whole entry): as the sequence (P43490 whole entry H191A) above, with A191H counted along it

NAMPT [4] = molecular target: T4, NAMPT; test: Cellular thermal shift assay (CETSA / […]) in intact HepG2 cells; type: cell-based; design: endogenous in cells; host or cells: HepG2; conditions: for ITDRFCETSA of NAMPT in cell lysate versus intact cells: lysate value relative to intact cells; for CETSA target binding of NAMPT in intact cell: intact HepG2 cells, 10 μM, 3 h
NAMPT [5] = molecular target: T4, NAMPT; test: NAMPT activity assay by fluorescence of NMN derivative (HTS system), IC50 determination; type: biochemical; design: His-tag; made in house; host or cells: E. coli BL21-CodonPlus (DE3)-RIL
NAD level of HepG2 cells = test: Cellular NAD level, spectrophotometric enzymatic cycling assay; type: cell-based, human; conditions: HepG2, even at 100 μM, 24 hours
From the text: F0 was the average d fluo rescen ce of si x backgr ound control s, repres ent ing zero activ ity from a si mul ated enz ym e reaction wit h on ly NAMP T but no NAM and com pound; F100 % was the average d fluorescen ce of si x ref erence cont rols, repr ese nt ing 100% activ ity from int act enz ym e reaction w ithou t com pound p ert ur bation.
Compounds with Activ ity% less tha n 40% were consi dered as inhi bi tor s and subj ect ed to a secondary screen inhi bition valida tion, in whi ch anot her backgr oun d cont rol (FC0), a si mul ated enz ym e reaction with NAMP Tand com pound but no NAM, was int roduced to elimina te the di rec t and /or ind irect inf lue nc e fro m compou nd. At thi s st age , the Activ ity% was cal culated accor ding t o e qua tion ( 2) :
In the screeni ng, the si gna l-to- noi se (S/N) rat io was cal cul ated usi ng the equa tion: (Mean signal -Mean backgr oun d) / SD backgr oun d4. Coe fficient s of vari atio n (CV) were the ratio of SD to mean. The Z ’f act or w as de term ine d by e qua tion (3) 5:
Z' −= (3)1−3(S Dhi ghsigna l+SDlowsigna l)
Mean hi gh signa l Meanlow signa l
Determ inat ion of IC50 for NAMPT inhi bitor s […]
vari ous con cent ration s were adde d int o 96-well pl ate. The pl ate was inc uba ted at 37 °C for 5 min after addition of 16.5 μl react ion buf fer cont aini ng N AMP T. The enz ym e reactions were ini tiated by 4.5 μl NAM (1.1 1 μM) follow ing NMN measurem ent as de scri bed above . […]
Cellul ar level of NAD was measured by spe ctrophot om etric enz ym atic cyc ling assa y, as de scri bed pr evi ousl y6-8. […]
Cell vi ability was de termine d by ou r previ ous method9 usi ng the Cell Counting Kit-8 (CCK -8, Dojindo, Ja pa n). […] Th e absor banc e at 450 nm (A450) was de tected by a pl ate reade r. […]
Briefly, cel ls were se ede d int o 96-well pl ates, cul tur ed overni ght , and trea ted with correspond ing com poun ds for 72 h. […] Sul for hoda mine B in the cells was di sso lved in 10 mmol/L Tris-HCl and was measured at 515 nm usi ng a multiw ell spect ropho tometer […]

NAMPT [6] = molecular target: T4, NAMPT; design: His-tag; made in house; host or cells: E. coli BL21-CodonPlus (DE3)-RIL; conditions: previous study of the authors ref 7; read-out: NAMPT inhibition activity IC50; cited from earlier work
[7] = HepG2, 72 h, HepG2, second test, 2-fold concentration gradient, 72 hours, read-out: SRB assay in HepG2: IC50
[8] = HepG2, HepG2, SRB, 10-fold concentration gradient, read-out: anti-proliferation IC50, initial screen
[9] = recombinant human NAMPT, mean ± s.e., read-out: NAMPT IC50
[10] = wild type, run beside the mutants, read-out: IC50 against wild-type NAMPT (mutagenesis study)

SMILES | IC50 (HepG2 cells [1]) [µM] | IC50 (HepG2 cells [1]; Homo sapiens, HepG2, 48 h) [µM] | IC50 (HepG2 cells [2]; [7]) [µM] | IC50 (HepG2 cells [2]; [8]) [µM] | IC50 (A549 cells) [µM] | IC50 (HCT116 cells) [µM] | IC50 (Huh7-C cells) [µM] | change in IC50 versus wild-type NAMPT, H191A (NAMPT H191A mutant) | IC50 (NAMPT H191A mutant) [µM] | change in IC50/potency versus wild-type NAMPT, A244S (NAMPT A244S mutant) [fold] | IC50 (NAMPT A244S mutant) [µM] | change in IC50/potency versus wild-type NAMPT, I309Y (NAMPT I309Y mutant) [fold] | IC50 (NAMPT I309Y mutant) [µM] | CETSA melting curve shift of NAMPT in cell lysate (NAMPT [3]) | ITDRFCETSA of NAMPT in cell lysate versus intact cells (NAMPT [4]; 62 °C) | CETSA target binding of NAMPT in intact cell (NAMPT [4]) | IC50 (NAMPT [5]; [9]) | IC50 (NAMPT [5]; [10]) [µM] | also measured
CC(C)(C)OC(=O)N1CCN(S(=O)(=O)c2ccc(NC(=S)NCc3cccnc3)cc2)CC1 [MS1] | 0.326 | 0.326 ± 0.0733 | ~3 | < 5 | < 5 | < 5 | 0.308 ± 0.0322 | no change | 0.0253 ± 0.00236 | 2 to 3 | 0.0361 ± 0.00411 | 2 to 3 | 0.0583 ± 0.0023 | obvious right shifts | approximately 100 fold | directly bound with NAMPT | 0.0217 µM | 0.0246 ± 0.00265 | –
O=S(=O)(c1ccc(NC(=S)NCc2cccnc2)cc1)N1CCN(Cc2ccccc2)CC1 [MS7, 1-(4-((4-benzylpiperazin-1-yl)sulfonyl)phenyl)-3-(pyridin-3-ylmethyl)thiourea] | 1.27 | 1.27 ± 0.158 | > 10 | – | – | – | 1.06 ± 0.248 | – | – | – | – | – | – | large thermal shift | no significant difference | – | 0.00093 µM and 0.0009 µM | – | ITDRFCETSA for NAMPT in lysate, compared with MS1 (NAMPT [3]; cell lysate, 62 °C): shifted to the left; ITDRFCETSA for NAMPT in intact cell, difference to MS1 (shifted to the right) (NAMPT [4]; intact cell, 62 °C): no less than 10 fold
O=S(=O)(c1ccc(NC(=S)NCc2cccnc2)cc1)N1CCN(Cc2ccc(C(F)(F)F)cc2)CC1 [MS34] | – | 0.615 ± 0.0424 | ~3 | < 5 | < 5 | < 5 | 0.514 ± 0.0833 | no change | 0.0252 ± 0.00242 | 2 to 3 | 0.0377 ± 0.0019 | 2 to 3 | 0.0576 ± 0.00371 | obvious right shifts | – | directly bound with NAMPT | 0.0237 ± 0.0078 µM | 0.0248 ± 0.00187 | –
O=[N+]([O-])c1ccc(CN2CCN(S(=O)(=O)c3ccc(NC(=S)NCc4cccnc4)cc3)CC2)cc1 [MS37] | – | – | 4.65 ± 1.03 | < 5 | < 5 | < 5 | – | – | – | – | – | – | – | – | – | – | 0.0197 ± 0.0021 µM | – | –
O=S(=O)(c1ccc(NC(=S)NCc2ccncc2)cc1)N1CCCCC1 [compound 733, reference compound] | – | – | – | – | – | – | – | – | – | – | – | – | – | – | – | – | – | – | effect on cellular NAD level (in words) (NAD level of HepG2 cells): did not show any effect; inhibition on NAMPT activity (in words) (NAMPT [5]): no inhibition
O=C(OC[C@H]1O[C@@H](OC(=O)c2cc(O)c(O)c(OC(=O)c3cc(O)c(O)c(O)c3)c2)[C@H](OC(=O)c2cc(O)c(O)c(OC(=O)c3cc(O)c(O)c(O)c3)c2)[C@@H](OC(=O)c2cc(O)c(O)c(OC(=O)c3cc(O)c(O)c(O)c3)c2)[C@@H]1OC(=O)c1cc(O)c(O)c(OC(=O)c2cc(O)c(O)c(O)c2)c1)c1cc(O)c(O)c(OC(=O)c2cc(O)c(O)c(O)c2)c1 [gallotannin] | – | – | – | – | – | – | – | – | – | – | – | – | – | – | – | – | – | – | IC50 (NAMPT [6]): 1.3 ± 0.1 µM
